According to PubChem BioAssay AID1053141 (Broad Institute, 2014):
Results filed as inconclusive are left out. The source made the active and inactive calls.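 Rule for the calls: active = compounds lowering cell ATP signal, with AC50 no higher than twice their own top valid dose; inconclusive = flat curve with 30 to 70% signal loss, or poor fit; inactive = the rest, including signal rises.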

Assays:
[1] = system: HEK293T viability, CellTiter-Glo ATP luminescence, 72 h; assay: HEK293T cell cytotoxicity, dose response, cytotoxicity control, ATP luminescence, dry powder, set 19 (AID 1053141)
[2] = as above; settings: HEK293T viability, CellTiter-Glo ATP luminescence, 72 h

Structure (SMILES) | AC50 [1] | other results
CO[C@H]1CN(C)C(=O)c2cc(NC(=O)NC(C)C)ccc2OC[C@H](C)N(Cc2ccccc2F)C[C@@H]1C | 27.4 µM | –
CCCC(=O)Nc1ccc2c(c1)OC[C@H](C)N(Cc1ccc(-c3ccccn3)cc1)C[C@H](C)[C@@H](OC)CN(C)C2=O | – | activity change, negative = cytotoxicity ([2]; at 26 µM (top of the series)): 4.89% (inactive)
CO[C@H]1CN(C)C(=O)c2cc(NC(=O)NC(C)C)ccc2OC[C@H](C)N(Cc2cncnc2)C[C@@H]1C | – | activity change, negative = cytotoxicity ([2]; at 50 µM (top of the series)): 24.6% (inactive)
CO[C@H]1CN(C)C(=O)c2cc(NC(=O)NC(C)C)ccc2OC[C@H](C)N(Cc2ccc(-c3cccnc3)cc2)C[C@@H]1C | 37.7 µM | –
CO[C@H]1CN(C)C(=O)c2cc(NC(=O)NC(C)C)ccc2OC[C@H](C)N(Cc2ccccn2)C[C@@H]1C | – | activity change, negative = cytotoxicity ([2]; at 50 µM (top of the series)): 43.7% (inactive)
CO[C@H]1CN(C)C(=O)c2cc(NC(=O)NC(C)C)ccc2OC[C@H](C)N(C(=O)Nc2ccc(-c3ccccn3)cc2)C[C@@H]1C | > 100 µM (inactive) | –
CO[C@H]1CN(C)C(=O)c2cc(NC(=O)NC(C)C)ccc2OC[C@H](C)N(Cc2ccccc2)C[C@@H]1C | 44.5 µM | –
CO[C@H]1CN(C)C(=O)c2cc(NC(=O)NC(C)C)ccc2OC[C@H](C)N(Cc2cccc(F)c2)C[C@@H]1C | 35.8 µM | –
CO[C@H]1CN(C)C(=O)c2cc(NC(=O)NC(C)C)ccc2OC[C@H](C)N(C(=O)c2ccc(-c3ccccn3)cc2)C[C@@H]1C | – | activity change, negative = cytotoxicity ([2]; at 50 µM (top of the series)): -14% (inactive)
CO[C@H]1CN(C)C(=O)c2cc(NC(=O)NC(C)C)ccc2OC[C@H](C)N(C(=O)c2ccccc2)C[C@@H]1C | – | activity change, negative = cytotoxicity ([2]; at 50 µM (top of the series)): 13.8% (inactive)
CO[C@H]1CN(C)C(=O)c2cc(NC(=O)NC(C)C)ccc2OC[C@H](C)N(Cc2ccc(F)cc2)C[C@@H]1C | 29.7 µM | –
CCC(CC)Nc1c(Nc2ccc3c(c2)C(=O)N(C)C[C@H](OC)[C@@H](C)CN(Cc2ccc(-c4ccccn4)cc2)[C@@H](C)CO3)c(=O)c1=O | 39.8 µM | –
CCCNC(=O)Nc1ccc2c(c1)OC[C@H](C)N(Cc1ccc(-c3ccccn3)cc1)C[C@H](C)[C@@H](OC)CN(C)C2=O | – | activity change, negative = cytotoxicity ([2]; at 26 µM (top of the series)): 12.5% (inactive)
CO[C@H]1CN(C)C(=O)c2cc(Nc3c(NC4CC4)c(=O)c3=O)ccc2OC[C@H](C)N(Cc2ccc(-c3ccccn3)cc2)C[C@@H]1C | 15 µM | –
CO[C@H]1CN(C)C(=O)c2cc(NC(=O)NC(C)C)ccc2OC[C@H](C)NC[C@@H]1C | > 100 µM (inactive) | –
CO[C@H]1CN(C)C(=O)c2cc(NC(=O)NC(C)C)ccc2OC[C@H](C)N(Cc2ccc(-c3ccccn3)cc2)C[C@@H]1C | 27 µM | –
CO[C@H]1CN(C)C(=O)c2cc(NC(=O)NC(C)C)ccc2OC[C@H](C)N(Cc2ccncc2)C[C@@H]1C | – | activity change, negative = cytotoxicity ([2]; at 50 µM (top of the series)): -29.6% (inactive)
CO[C@H]1CN(C)C(=O)c2ccc(NC(=O)NC(C)C)cc2OC[C@H](C)N(Cc2ccccc2)C[C@@H]1C | – | activity change, negative = cytotoxicity ([2]; at 26 µM (top of the series)): 94.8% (inactive)
CCCC(=O)Nc1ccc2c(c1)OC[C@H](C)N(Cc1ccccc1)C[C@H](C)[C@@H](OC)CN(C)C2=O | > 52 µM (inactive) | –
CO[C@H]1CN(C)C(=O)c2cc(Nc3c(NC4CCCC4)c(=O)c3=O)ccc2OC[C@H](C)N(Cc2ccc(-c3ccccn3)cc2)C[C@@H]1C | 13.8 µM | –
CCCNC(=O)Nc1ccc2c(c1)OC[C@H](C)N(Cc1ccccc1)C[C@H](C)[C@@H](OC)CN(C)C2=O | – | activity change, negative = cytotoxicity ([2]; at 26 µM (top of the series)): 49.2% (inactive)
CO[C@H]1CN(C)C(=O)c2cc(NC(=O)NC(C)C)ccc2OC[C@H](C)N(Cc2cccnc2)C[C@@H]1C | – | activity change, negative = cytotoxicity ([2]; at 50 µM (top of the series)): 30.5% (inactive)
CO[C@H]1CN(C)C(=O)c2cc(NC(=O)NC(C)C)ccc2OC[C@H](C)N(Cc2ccc(-c3ccncc3)cc2)C[C@@H]1C | 30.7 µM | –
CO[C@H]1CN(C)C(=O)c2cc(Nc3ncccn3)ccc2OC[C@H](C)N(Cc2ccc(-c3ccccn3)cc2)C[C@@H]1C | 24.5 µM | –
CO[C@H]1CN(C)C(=O)c2ccc(NC(=O)NC(C)C)cc2OC[C@H](C)N(Cc2ccc(-c3ccccn3)cc2)C[C@@H]1C | – | activity change, negative = cytotoxicity ([2]; at 26 µM (top of the series)): -6.54% (inactive)
CO[C@H]1CN(C)C(=O)c2cc(NC(=O)C(C)C)ccc2OC[C@H](C)N(Cc2ccc(-c3ccccn3)cc2)C[C@@H]1C | 52.3 µM | –
